Legend:
α-arabinosidase = experiment: Enzymatic hydrolysis of the muscat glycosidic extract by α-arabinosidase (GC); assay type: biochemical
Protocol: (§1) 40 μl of glycosidic extract and 60 μl of a solution of Glc-pNP (internal standard) at a concentration of 50 mg/1 in ethyl acetate are introduced into a suitable flask. The mixture is taken to dryness at 40° C. with a stream of nitrogen. 40 μl of the silylating reagent (Tri-sil, Pierce, Rockford, Ill., U.S.A.) are then introduced; the flask is sealed and maintained at 40° C. for 20 minutes. After rapid cooling, the silylated sample is then ready for analysis by GC.
(§2) The apparatus used consists of a Series 30C gas chromatograph, an "on-column" injector (injected volume 0.5 μl) and a flame ionization detector (Girdel, France). A thin film (0.20 μm) of an OV-1 (Girdel) apolar silicone phase is grafted onto the inner wall of the capillary column ([…].). The oven temperature is programmed from 125 to 305° C. at the rate of 5° C./minute, then maintained at 305° C. for 15 minutes. Finally, the detector temperature is set at 300° C. and hydrogen is used as the carrier gas at a pressure of 120 kPa.
(§3) The experimental protocols for the enzymatic hydrolysis on the glycosidic extract are collated in Table 3. […]

α-rhamnosidase = experiment: Enzymatic hydrolysis of the muscat glycosidic extract by α-rhamnosidase (GC); assay type: biochemical; conditions: 0.15 nkat, 40° C., 16 h
Protocol: as §1, §2, §3

β-glucosidase [1] = experiment: Second stage: consecutive action of β-glucosidase on the pre-incubated glycosidic extract (GC); assay type: biochemical, sweet almond; conditions: 0.15 nkat, 40°, 16 h
Protocol: as §1, §2, §3

[2] = target: T1, β-glucosidase of Klerzyme 200 (Aspergillus niger, UniProt A2RAL4); experiment: Hydrolysis of Hemicellulase-pretreated glycosidic extract by Klerzyme 200 (GC); assay type: biochemical; conditions: glycosidic extract pretreated with Hemicellulase
T1 sequence (A2RAL4 20-860): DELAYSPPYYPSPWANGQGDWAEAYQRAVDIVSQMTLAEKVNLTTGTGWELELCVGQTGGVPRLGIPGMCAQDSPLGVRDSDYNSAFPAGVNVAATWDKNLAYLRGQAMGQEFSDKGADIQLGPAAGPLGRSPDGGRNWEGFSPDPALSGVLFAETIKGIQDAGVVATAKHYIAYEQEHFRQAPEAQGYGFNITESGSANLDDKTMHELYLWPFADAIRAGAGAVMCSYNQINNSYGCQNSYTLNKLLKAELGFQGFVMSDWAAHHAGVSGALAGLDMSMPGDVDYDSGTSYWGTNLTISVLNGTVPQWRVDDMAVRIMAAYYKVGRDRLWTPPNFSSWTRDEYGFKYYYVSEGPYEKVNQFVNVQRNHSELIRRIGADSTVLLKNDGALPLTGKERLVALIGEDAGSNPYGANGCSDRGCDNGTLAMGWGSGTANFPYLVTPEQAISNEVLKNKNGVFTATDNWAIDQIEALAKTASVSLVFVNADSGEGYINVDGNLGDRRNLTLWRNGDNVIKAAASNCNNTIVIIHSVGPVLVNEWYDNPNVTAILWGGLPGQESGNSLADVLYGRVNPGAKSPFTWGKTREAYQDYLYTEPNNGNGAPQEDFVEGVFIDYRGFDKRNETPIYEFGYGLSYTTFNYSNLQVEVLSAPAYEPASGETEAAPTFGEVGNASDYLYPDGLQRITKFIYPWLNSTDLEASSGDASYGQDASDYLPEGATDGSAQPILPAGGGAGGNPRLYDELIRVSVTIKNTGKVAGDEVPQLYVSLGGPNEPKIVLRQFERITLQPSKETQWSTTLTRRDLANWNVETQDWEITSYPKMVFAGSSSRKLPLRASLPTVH
Description: In another aspect, the action of the β-apiosidase on a glycosidic extract (FIG. 11A) was studied after the action of the Hemicellulase preparation (containing α-rhamnosidase, α-arabinosidase and β-glucosidase activities) on this extract. The Hemicellulase preparation eliminated the rhamnosyl- and arabinosylglucosides (FIG. 11B). Afterwards, the apiosylglucosides remaining were subjected to the hydrolytic action of the β-apiosidase and β-glucosidase of Klerzyme 200 (FIG. 11C). […] This is attributable to the weak affinity of the β-glucosidase of Klerzyme 200, vis-a-vis the linalyl glucosides.

[3] = Vinification of Muscat of Frontignan must with Klerzyme 200, free and bound aroma components by GC
Protocol: After storing for 1.5 months at 20°-22° C., the free and bound aroma component fractions of each sample were extracted on an Amberlite XAD-2 column in 50 ml aliquots, and analyzed via GC.
In another aspect, the action of an enzyme preparation (Klerzyme 200) containing β-apiosidase activity, in addition to α-rhamnosidase, α-arabinosidase and β-glucosidase activity, was studied during the fermentation of dry wines from the Muscat of Frontignan must. Klerzyme 200 (containing (per liter must) 2,770 nkat β-glucosidase, 704 nkat β-apiosidase, 276 nkat α-arabinosidase and 35 nkat α-rhamnosidase) and 10 g/hl of a wine yeast (Saccharomyces cerevisiae, type K1) were added to the must.

β-glucosidase [4] = conditions: cited from earlier work

For `C=CC(C)(CCC=C(C)C)O[C@@H]1O[C@H](CO)[C@@H](O)[C@H](O)[C@H]1O` (stereo partly drawn) [Glc-Lin, linalyl β-D-glucopyranoside], the “Terpene monoglucosides liberated by α-arabinosidase from a glycosidic extract” value (α-arabinosidase; 0.15 nkat, 40° C., 16 h) was 10%, the “% of monoglucosides (liberated by the two enzymes together)” value (α-arabinosidase; sum of α-arabinosidase and α-rhamnosidase) was 19% and the “Terpene monoglucosides liberated by α-rhamnosidase from a glycosidic extract” value (α-rhamnosidase) was 9%. For the same compound, the “hydrolysis by consecutive action of β-glucosidase (second stage, GC)” value (β-glucosidase [1]; listed as linalyl glucoside) was “incomplete hydrolysis”, the “hydrolysis by consecutive action of β-glucosidase (second stage, GC)” value (β-glucosidase [1]; listed as linanyl monoglucoside) was “reduction” and the “hydrolysis by the β-glucosidase of Klerzyme 200” value [2] was “not hydrolyzed”. For the same compound, the “hydrolysis by Klerzyme 200 during vinification of dry wine” value [3] was “not hydrolyzed” and the “affinity of the sweet almond β-glucosidase for the substrate” value (β-glucosidase [4]) was “low affinity”.

Reference: US5573926A, “Process for obtaining aroma components and aromas from their precursors of a glycosidic nature, and aroma components and aromas thereby obtained” (Gist-brocades, N.V., priority 1989, dated 1996)
